Test results: ChEMBL document CHEMBL5614367, “Hydroxamic acid hybrids: Histone deacetylase inhibitors with anticancer therapeutic potency” (Eur J Med Chem, 2023)

Assays:
[1] = tested on: Jurkat; test: Antiproliferative activity against human Jurkat cells; format: functional, cell-based
[2] = Antiproliferative activity against human HL-60/Vinc cells; conditions: HL60/vinc
[3] = tested on: HL60/ADR; test: Antiproliferative activity against human HL-60/ADR cells
[4] = tested on: HL-60; test: Antiproliferative activity against human HL-60 cells; format: functional, cell-based
[5] = Cytotoxicity against HEK293 cells; format: toxicity, cell-based; conditions: human
[6] = tested on: HCT-116; test: cells; conditions: Homo sapiens
[7] = tested on: MCF7; test: cells; conditions: Homo sapiens
[8] = tested on: HCT-116; test: cells; format: functional, cell-based; conditions: Homo sapiens, HCT-116, 72 h
[9] = molecular target: T1, Protein deacetylase HDAC6 (Homo sapiens, UniProt Q9UBN7); test: Inhibition of HDAC6 (unknown origin)
T1 sequence (Q9UBN7 whole entry): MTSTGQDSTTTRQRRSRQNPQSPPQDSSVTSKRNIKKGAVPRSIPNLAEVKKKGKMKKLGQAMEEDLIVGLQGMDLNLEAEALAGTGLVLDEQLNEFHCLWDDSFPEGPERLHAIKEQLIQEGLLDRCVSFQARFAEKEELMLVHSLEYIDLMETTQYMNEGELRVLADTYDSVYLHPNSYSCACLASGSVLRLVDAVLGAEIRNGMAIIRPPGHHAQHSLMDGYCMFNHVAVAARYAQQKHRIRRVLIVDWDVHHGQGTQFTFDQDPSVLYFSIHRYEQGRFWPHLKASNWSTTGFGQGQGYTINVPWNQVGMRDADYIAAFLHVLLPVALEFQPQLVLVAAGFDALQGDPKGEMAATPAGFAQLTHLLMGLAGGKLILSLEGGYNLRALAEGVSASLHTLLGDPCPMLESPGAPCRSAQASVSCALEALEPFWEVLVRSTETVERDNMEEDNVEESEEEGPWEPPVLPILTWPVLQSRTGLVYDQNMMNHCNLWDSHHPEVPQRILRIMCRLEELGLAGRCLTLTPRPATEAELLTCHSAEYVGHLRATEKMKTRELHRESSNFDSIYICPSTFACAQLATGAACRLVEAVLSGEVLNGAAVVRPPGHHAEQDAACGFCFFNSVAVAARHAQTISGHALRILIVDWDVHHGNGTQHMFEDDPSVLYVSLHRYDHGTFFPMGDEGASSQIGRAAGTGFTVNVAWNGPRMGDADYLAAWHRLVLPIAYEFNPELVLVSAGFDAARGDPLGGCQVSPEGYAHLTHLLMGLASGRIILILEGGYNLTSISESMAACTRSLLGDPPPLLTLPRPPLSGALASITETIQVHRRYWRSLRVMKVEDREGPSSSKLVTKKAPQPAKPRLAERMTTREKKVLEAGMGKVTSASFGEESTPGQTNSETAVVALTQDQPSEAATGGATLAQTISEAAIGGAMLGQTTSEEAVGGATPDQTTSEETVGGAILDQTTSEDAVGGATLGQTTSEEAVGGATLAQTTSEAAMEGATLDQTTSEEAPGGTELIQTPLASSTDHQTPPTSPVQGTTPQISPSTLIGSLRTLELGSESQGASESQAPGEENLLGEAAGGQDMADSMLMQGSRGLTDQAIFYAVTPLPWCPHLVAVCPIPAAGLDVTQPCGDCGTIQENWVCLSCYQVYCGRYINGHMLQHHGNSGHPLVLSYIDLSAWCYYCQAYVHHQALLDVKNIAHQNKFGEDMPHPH

[10] = tested on: HCT 116 TP53(-/-); test: cells; format: functional, cell-based; conditions: Homo sapiens, 72 h
[11] = tested on: HepG2; test: cells; format: functional, cell-based; conditions: Homo sapiens, HepG2, 72 h
[12] = tested on: Huh-7; test: cells; format: functional, cell-based; conditions: Homo sapiens, Huh-7, 72 h
[13] = tested on: 518A2; test: cells; format: functional, cell-based; conditions: Homo sapiens, 518A2, 72 h
[14] = Cytotoxicity against human HDFa cells assessed as inhibition of cell growth incubated for 72 hrs by MTT assay; format: toxicity, cell-based
[15] = tested on: HCT-116; test: Antiproliferative activity against human HCT-116 cells measured after 72 hrs by MTT assay; format: functional, cell-based; conditions: HCT-116, 72 h
[16] = molecular target: Histone deacetylase 1 (Homo sapiens, UniProt Q13547); test: Inhibition of HDAC1 (unknown origin) using Ac-peptide as substrate pretreated for 15 mins followed by substrate addition and measured after 60 mins
[17] = tested on: A549; test: Antiproliferative activity against human A549 cells measured after 72 hrs by MTT assay; format: functional, cell-based; conditions: A549, 72 h
[18] = tested on: MCF7; test: Antiproliferative activity against human MCF7 cells measured after 72 hrs by MTT assay; format: functional, cell-based; conditions: MCF7, 72 h
[19] = tested on: HCT-116; test: cells; format: functional, cell-based; conditions: Homo sapiens, HCT-116, 48 h
[20] = molecular target: T1, Protein deacetylase HDAC6; test: Inhibition of human recombinant HDAC6 using Fluor-de-Lys deacetylase as substrate by Spectrofluorimetry
[21] = tested on: A549; test: Antiproliferative activity against human A549 cells assessed as inhibition of cell growth incubated for 48 hrs by SRB assay; format: functional, cell-based; conditions: A549, 48 h
[22] = molecular target: Serine/threonine-protein kinase B-raf (Homo sapiens, UniProt P15056, V600E); test: Inhibition of BRAF V600E mutant (unknown origin)
[23] = molecular target: Serine/threonine-protein kinase B-raf (Homo sapiens, UniProt P15056); test: Inhibition of wild type BRAF (unknown origin)
[24] = Metabolic stability in human liver microsomes assessed as half life by LC-MS/MS analysis; format: ADME, Microsome
[25] = tested on: MDA-MB-231; test: Antitumor activity against human MDA-MB-231 cells xenografted in BALB/c nude mouse assessed as tumor growth inhibition by measuring test to control ratio at 30 mg/kg/day, po measured every 3 days for 22 days relative to control; format: functional; conditions: time 22 day
[26] = Metabolic stability in human plasma assessed as half life by LC-MS/MS analysis; format: ADME, cell-free
[27] = tested on: MDA-MB-231; test: Antitumor activity against human MDA-MB-231 cells xenografted in BALB/c nude mouse assessed as tumor growth inhibition at 30 mg/kg/day, po measured every 3 days for 22 days relative to control; format: functional; conditions: MDA-MB-231, 528 h, time 22 day, read-out: TGI
[28] = tested on: A549; test: Antiproliferative activity against human A549 cells
[29] = tested on: HT-29; test: Antiproliferative activity against human HT-29 cells; format: functional, cell-based
[30] = tested on: HeLa; test: Antiproliferative activity against human HeLa cells; format: functional, cell-based
[31] = Cytotoxicity against human NFF cells; format: toxicity, cell-based
[32] = tested on: MM96L; test: Antiproliferative activity against human MM96L cells; format: functional, cell-based
[33] = tested on: MDA-MB-231; test: Antiproliferative activity against human MDA-MB-231 cells
[34] = molecular target: Histone deacetylase 2 (Homo sapiens, UniProt Q92769); test: Inhibition of HDAC2 (unknown origin)
Histone deacetylase 2, sequence (Q92769 whole entry): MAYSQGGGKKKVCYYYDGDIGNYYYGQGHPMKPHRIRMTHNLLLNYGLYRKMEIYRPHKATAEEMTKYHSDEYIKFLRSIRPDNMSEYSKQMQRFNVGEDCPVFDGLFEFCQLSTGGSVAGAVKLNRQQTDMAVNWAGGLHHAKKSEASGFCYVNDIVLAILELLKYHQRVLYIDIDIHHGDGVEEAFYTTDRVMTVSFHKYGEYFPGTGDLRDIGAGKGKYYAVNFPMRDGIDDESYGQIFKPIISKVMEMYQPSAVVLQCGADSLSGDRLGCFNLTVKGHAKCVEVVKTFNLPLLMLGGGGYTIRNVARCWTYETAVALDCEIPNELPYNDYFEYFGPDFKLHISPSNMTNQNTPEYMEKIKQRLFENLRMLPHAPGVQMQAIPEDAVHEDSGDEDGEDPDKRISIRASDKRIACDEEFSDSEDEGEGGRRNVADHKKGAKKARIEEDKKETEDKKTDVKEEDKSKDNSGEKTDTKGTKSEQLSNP

Histone deacetylase 1, sequence (Q13547 whole entry): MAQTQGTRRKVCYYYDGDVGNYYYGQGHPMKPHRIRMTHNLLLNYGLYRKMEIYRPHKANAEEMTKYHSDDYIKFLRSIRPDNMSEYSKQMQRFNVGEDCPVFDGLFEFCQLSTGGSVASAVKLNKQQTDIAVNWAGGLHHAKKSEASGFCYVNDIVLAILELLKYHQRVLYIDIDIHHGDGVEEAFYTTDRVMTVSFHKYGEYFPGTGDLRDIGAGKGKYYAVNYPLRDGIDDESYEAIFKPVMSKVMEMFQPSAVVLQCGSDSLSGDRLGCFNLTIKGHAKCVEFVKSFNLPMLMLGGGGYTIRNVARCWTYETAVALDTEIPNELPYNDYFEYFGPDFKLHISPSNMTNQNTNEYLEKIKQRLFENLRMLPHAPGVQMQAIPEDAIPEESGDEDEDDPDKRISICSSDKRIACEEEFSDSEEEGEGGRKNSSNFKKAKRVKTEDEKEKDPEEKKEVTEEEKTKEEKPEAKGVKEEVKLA
Serine/threonine-protein kinase B-raf (Homo sapiens, UniProt P15056), sequence (P15056 whole entry): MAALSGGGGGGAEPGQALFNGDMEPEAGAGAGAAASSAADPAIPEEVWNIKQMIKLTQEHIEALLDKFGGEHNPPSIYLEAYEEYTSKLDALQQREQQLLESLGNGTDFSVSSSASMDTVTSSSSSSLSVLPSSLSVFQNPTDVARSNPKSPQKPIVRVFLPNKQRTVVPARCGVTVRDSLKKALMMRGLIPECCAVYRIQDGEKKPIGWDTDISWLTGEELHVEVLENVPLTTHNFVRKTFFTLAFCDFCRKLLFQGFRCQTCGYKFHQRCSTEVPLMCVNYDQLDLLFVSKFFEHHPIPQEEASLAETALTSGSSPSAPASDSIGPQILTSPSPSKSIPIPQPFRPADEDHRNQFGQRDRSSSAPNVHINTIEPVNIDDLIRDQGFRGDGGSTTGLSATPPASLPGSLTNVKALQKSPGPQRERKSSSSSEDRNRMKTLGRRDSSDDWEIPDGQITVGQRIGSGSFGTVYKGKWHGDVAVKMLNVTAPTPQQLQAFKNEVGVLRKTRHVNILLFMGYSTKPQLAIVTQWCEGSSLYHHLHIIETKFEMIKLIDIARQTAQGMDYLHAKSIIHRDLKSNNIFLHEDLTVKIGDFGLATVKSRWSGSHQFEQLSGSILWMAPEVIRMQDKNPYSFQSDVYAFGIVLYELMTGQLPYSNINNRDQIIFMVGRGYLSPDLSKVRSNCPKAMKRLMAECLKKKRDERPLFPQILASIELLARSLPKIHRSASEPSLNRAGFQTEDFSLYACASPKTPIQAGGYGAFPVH
Serine/threonine-protein kinase B-raf (Homo sapiens, UniProt P15056, V600E), sequence (P15056 2-766 V600E limits assumed): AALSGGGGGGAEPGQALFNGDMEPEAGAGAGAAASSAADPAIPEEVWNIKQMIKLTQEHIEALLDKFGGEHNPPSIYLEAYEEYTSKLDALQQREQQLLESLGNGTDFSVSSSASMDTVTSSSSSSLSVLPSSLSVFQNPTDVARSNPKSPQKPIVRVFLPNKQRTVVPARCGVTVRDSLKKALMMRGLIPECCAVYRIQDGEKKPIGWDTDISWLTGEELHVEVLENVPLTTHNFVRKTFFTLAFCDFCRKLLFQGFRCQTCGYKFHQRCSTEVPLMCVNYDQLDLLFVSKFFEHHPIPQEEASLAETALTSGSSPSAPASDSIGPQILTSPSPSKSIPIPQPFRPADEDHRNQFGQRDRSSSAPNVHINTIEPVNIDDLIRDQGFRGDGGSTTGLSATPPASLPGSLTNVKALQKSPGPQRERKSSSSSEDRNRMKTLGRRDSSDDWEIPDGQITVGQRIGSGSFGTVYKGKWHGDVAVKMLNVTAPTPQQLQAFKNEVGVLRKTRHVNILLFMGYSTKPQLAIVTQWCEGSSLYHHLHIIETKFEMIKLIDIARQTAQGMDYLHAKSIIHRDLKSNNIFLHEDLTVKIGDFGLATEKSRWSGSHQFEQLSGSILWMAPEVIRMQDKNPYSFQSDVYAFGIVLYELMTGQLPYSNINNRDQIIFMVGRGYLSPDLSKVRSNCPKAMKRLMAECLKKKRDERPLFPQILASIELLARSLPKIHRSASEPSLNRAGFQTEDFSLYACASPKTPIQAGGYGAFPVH

CN(C)c1nc2c(Br)c(Br)c(Br)c(Br)c2n1CCCCCCCC(=O)NO
IC50 [1]: 2320 nM
IC50 [2]: 2320 nM
IC50 [3]: 2320 nM
IC50 [4]: 2320 nM
IC50 [5]: 2320 nM
IC50 [6]: 2320 nM
IC50 [7]: 2320 nM

COc1ccc(-c2ocnc2-c2cc(OC)c(OC)c(OC)c2)cc1OCCCC(=O)NO
IC50 [8]: 180 nM
IC50 [9]: ~1000 nM
IC50 [10]: 180 nM
IC50 [11]: 180 nM
IC50 [12]: 180 nM
IC50 [13]: 180 nM
IC50 at 72 h [14]: > 50000 nM

COc1cc2c(Oc3ccc(NC(=O)C4CCN(c5ccc(F)cc5)C4=O)cc3)ccnc2cc1OCCCCCCC(=O)NO (stereo unspecified)
IC50 [15]: 280 nM
IC50 [16]: 27 nM
IC50 [17]: 280 nM
IC50 [18]: 280 nM

O=C(NO)c1ccc(CNc2cccc3cc(-c4ccncc4)cnc23)cc1
IC50 [19]: 1290 nM
IC50 [20]: 8.16 nM
IC50 [21]: 1290 nM

O=C(CCCCCCNc1nccc(-c2sc(-c3ccccc3)nc2-c2cccc(NS(=O)(=O)c3c(F)cccc3F)c2F)n1)NO
IC50 [9]: 15.6 nM
IC50 [22]: 1.71 nM
IC50 [6]: 310 nM
IC50 [23]: 1.71 nM

O=C(CCCCCCC(=O)Nc1nc2ccc(OC(F)(F)F)cc2s1)NO
half-life [24]: 56 min
T/C [25]: 55%
half-life [26]: > 120 min
inhibition in vivo at 30 mg/kg/day [27]: 59%

O=C(NO)c1ccc(NC(=O)C2(c3ccc(-c4cn[nH]c4)cc3)CCCCC2)cc1
IC50 [28]: 50 nM
IC50 [29]: 50 nM
IC50 [30]: 50 nM
IC50 [31]: 50 nM
IC50 [32]: 50 nM
IC50 [33]: 50 nM
IC50 [34]: 2 nM
